In PMC11348465, “Pharmacochemical Study of Multitarget Amino Acids’ Hybrids: Design, Synthesis, In vitro, and In silico Studies” (Medicinal Chemistry (Shariqah (United Arab Emirates), 2024):
pIC50: −log10 of the molar value.

What was measured:
[1] = biological target: T1, soybean lipoxygenase (LOX-1) (Glycine max, UniProt P08170); assay: Soybean lipoxygenase inhibition study; format: biochemical; conditions: for inhibition at 100 µM: read-out: LOX inhibition (%); for pIC50: read-out: LOX inhibition (IC50); for LOX inhibition (%): % inhibition at 100 µM
T1 construct: purchased Sigma Chemical, Co. (St Louis, MO, USA)
T1 sequence (P08170 1-839): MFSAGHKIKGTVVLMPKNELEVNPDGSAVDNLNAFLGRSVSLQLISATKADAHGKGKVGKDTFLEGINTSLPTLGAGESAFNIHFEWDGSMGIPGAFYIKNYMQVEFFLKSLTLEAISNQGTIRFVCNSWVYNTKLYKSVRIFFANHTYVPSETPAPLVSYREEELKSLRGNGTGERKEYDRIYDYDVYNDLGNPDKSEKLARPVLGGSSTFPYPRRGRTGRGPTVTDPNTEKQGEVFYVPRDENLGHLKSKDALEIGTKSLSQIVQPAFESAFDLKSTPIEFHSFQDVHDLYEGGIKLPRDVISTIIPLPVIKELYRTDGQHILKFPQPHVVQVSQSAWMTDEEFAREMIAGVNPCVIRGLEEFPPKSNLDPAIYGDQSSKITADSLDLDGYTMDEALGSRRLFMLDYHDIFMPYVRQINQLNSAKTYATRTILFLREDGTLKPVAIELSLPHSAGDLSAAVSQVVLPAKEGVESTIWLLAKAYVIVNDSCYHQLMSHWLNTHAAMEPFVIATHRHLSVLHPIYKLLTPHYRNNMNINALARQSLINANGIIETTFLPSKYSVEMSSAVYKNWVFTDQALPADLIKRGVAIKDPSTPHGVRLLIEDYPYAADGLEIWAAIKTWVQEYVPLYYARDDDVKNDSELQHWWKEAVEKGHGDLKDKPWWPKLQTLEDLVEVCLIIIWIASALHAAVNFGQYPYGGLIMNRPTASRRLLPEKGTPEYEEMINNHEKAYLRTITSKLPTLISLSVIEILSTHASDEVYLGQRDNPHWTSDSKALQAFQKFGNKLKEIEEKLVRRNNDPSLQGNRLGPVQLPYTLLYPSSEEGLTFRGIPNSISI
Procedure: Our group evaluated an in vitro study as reported previously. The tested hybrids were incubated at room temperature with sodium linoleate (100 µM) and 200 µL of enzyme solution (1/9 X 10^-4 w/v in saline). […] Different concentrations were used for the determination of IC50. A blank determination was used as a negative control.
Due to the limited work on sufficiently purified human ALOX-5 isoenzyme, most of the published research was performed on the soybean homolog. […] This study used the soybean isoenzyme LOX-1, which exerts maximal activity at pH 9.0 [72].

[2] = Inhibition of linoleic acid peroxidation (AAPH-induced)
Procedure: Our group evaluated the in vitro study as reported previously. Ten 16 mM sodium linoleate solution microliters were added to the UV cuvette containing 93 µL of a 0.05 M phosphate buffer, pH 7.4, and 10 µL of the tested compounds (final concentration 100 µM). The oxidation reaction started at 37 °C under air by adding 50 µL of the free radical initiator AAPH (40 mM). Oxidation was carried out and monitored at 234 nm. DMSO under the same conditions was used as a negative control. Trolox was used as the appropriate standard (positive control). The results are given in Table S1 in the supplementary material.
We used the water-soluble 2, 2’-azobis(2-amidinopropane) hydrochloride (AAPH) to generate in vitro peroxyl radicals through spontaneous thermal decomposition, which resembles cellular lipid peroxidation due to the activity of the undertaken radicals. The anti-lipid peroxidation activities were compared to a well-known antioxidant, i.e., Trolox (Table S1 in the supplementary material). […] In general, the anti-lipid peroxidation ranged from 8-99%. Except for acids 11, 12, 17, 19, 21, 22, 24, 25, and 28, which present high antioxidant activities (on the high % level), the other cinnamic acids present low or medium activity.

ovine COX-2 = biological target: T2, ovine COX-2 (Ovis aries, UniProt P79208); assay: Cyclooxygenase-2 inhibition study; format: biochemical; conditions: for pIC50: read-out: COX-2 inhibition (IC50); for COX-2 inhibition (%): % inhibition at 100 µM
T2 construct: purchased Cayman (USA)
T2 sequence (P79208 17-603): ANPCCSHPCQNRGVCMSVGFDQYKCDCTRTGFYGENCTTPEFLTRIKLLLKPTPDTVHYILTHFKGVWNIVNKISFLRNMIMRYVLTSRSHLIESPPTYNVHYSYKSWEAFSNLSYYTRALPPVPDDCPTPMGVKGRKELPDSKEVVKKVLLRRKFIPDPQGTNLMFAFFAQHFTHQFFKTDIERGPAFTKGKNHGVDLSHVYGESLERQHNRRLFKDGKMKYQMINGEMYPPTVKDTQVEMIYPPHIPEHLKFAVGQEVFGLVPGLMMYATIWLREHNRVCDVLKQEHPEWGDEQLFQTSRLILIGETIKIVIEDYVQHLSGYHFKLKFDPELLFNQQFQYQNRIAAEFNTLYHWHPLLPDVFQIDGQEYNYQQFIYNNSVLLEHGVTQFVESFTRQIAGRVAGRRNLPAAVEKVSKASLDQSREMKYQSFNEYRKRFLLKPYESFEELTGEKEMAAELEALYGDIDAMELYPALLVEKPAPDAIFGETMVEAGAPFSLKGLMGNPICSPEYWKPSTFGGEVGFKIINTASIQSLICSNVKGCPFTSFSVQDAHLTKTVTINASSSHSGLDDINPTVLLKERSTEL
Procedure: The in vitro study of cyclooxygenase (COX) activity was determined by using arachidonic acid (AA) as the substrate and N,N,N’,N’-tetramethylphenylenediamine (TMPD) as the co-substrate. […] The absorption due to the spontaneous oxidation of TMPD was subtracted from the initial rate of oxidation observed in the presence of AA. […] A blank determination was used first to serve as a negative control. Indomethacin was used as a reference COX-2 inhibitor (positive control).
The role of COX-2 in neurodegenerative diseases has been reported, and COX-2 inhibition is considered of high importance as a therapeutic tool. The designed derivatives were tested for their COX-2 inhibition activity on the ovine COX-2 enzyme. […] Indomethacin was used as a reference compound.

For O=C(O)/C=C/c1ccc2c(c1)OCO2 [Compound 20], the inhibition at 100 µM [1] was 27% and the “AAPH inhibition (%, at 100 µM)” value [2] was 31%.
In the case of COC(=O)CC[C@H](NC(=O)/C=C/c1ccc(O)cc1)C(=O)OC [Compound 25c], the pIC50 [1] was 4.20 and the “AAPH inhibition (%, at 100 µM)” value [2] was 78%.
For CC1(C)Oc2ccc(/C=C/C(=O)O)cc2O1 [Compound 29, (E)-3-(2,2-dimethylbenzo[d][1, 3]dioxol-5-yl)acrylic acid], the inhibition at 100 µM [1] was 46% and the “AAPH inhibition (%, at 100 µM)” value [2] was 56%.
In the case of CCOC(=O)CNC(=O)/C=C/c1ccc(Cl)cc1 [Compound 16a], the pIC50 (ovine COX-2) was 4.20.
In the case of CCOC(=O)CNC(=O)/C=C/c1ccc(O)c(OC)c1 [Compound 24a], the pIC50 [1] was 4.00 and the “AAPH inhibition (%, at 100 µM)” value [2] was 82%.
For COC(=O)CCCNC(=O)/C=C/c1ccc(OC(C)=O)cc1 [Compound 30b], the pIC50 (ovine COX-2) was 4.30 and the “AAPH inhibition (%, at 100 µM)” value [2] was 9%.
For COC(=O)CC[C@H](NC(=O)/C=C/c1ccc2c(c1)OCO2)C(=O)OC [Compound 20c], the “LOX inhibition (%)” value [1] was 19% and the “AAPH inhibition (%, at 100 µM)” value [2] was 20%.
For COC(=O)CCCNC(=O)/C=C/c1cccc(Br)c1 [Compound 15b], the “COX-2 inhibition (%)” value (ovine COX-2) was 43% and the “AAPH inhibition (%, at 100 µM)” value [2] was 27%.
In the case of COC(=O)CC[C@H](NC(=O)/C=C/c1cc(OC)ccc1OC)C(=O)OC [Compound 19c], the “LOX inhibition (%)” value [1] was 7% and the “AAPH inhibition (%, at 100 µM)” value [2] was 64%.
With O=C(O)/C=C/c1ccc(O)c(O)c1 [Compound 28, trans-caffeic acid] the inhibition at 100 µM (ovine COX-2) was 6% and the “AAPH inhibition (%, at 100 µM)” value [2] was 80%.
In the case of CCOC(=O)CNC(=O)/C=C/c1cccc(Br)c1 [Compound 15a], the pIC50 [1] was 4.24 and the “AAPH inhibition (%, at 100 µM)” value [2] was 26%.
In the case of CCOC(=O)CNC(=O)/C=C/c1ccc(O)cc1 [Compound 25a], the “AAPH inhibition (%, at 100 µM)” value [2] was 39%.
Work on CCOC(=O)CNC(=O)/C=C/c1ccc(OC(C)=O)cc1 [Compound 30a] yielded a pIC50 (ovine COX-2) of 4.24.
With O=C(O)/C=C/c1ccc(F)cc1 [Compound 27] the inhibition at 100 µM (ovine COX-2) was 46%.
For COC(=O)CCCNC(=O)/C=C/C=C/c1ccccc1 [Compound 23b], the pIC50 (ovine COX-2) was 4.26 and the “AAPH inhibition (%, at 100 µM)” value [2] was 78%.
For CCOC(=O)CNC(=O)/C=C/c1cc(OC)ccc1OC [Compound 19a], the “LOX inhibition (%)” value [1] was 28% and the “AAPH inhibition (%, at 100 µM)” value [2] was 89%.
In the case of COC(=O)CCCNC(=O)/C=C/c1ccc(OC)c(OC)c1 [Compound 18b], the “LOX inhibition (%)” value [1] was 40% and the “AAPH inhibition (%, at 100 µM)” value [2] was 75%.
With COC(=O)CC[C@H](NC(=O)/C=C/c1ccc(Br)cc1)C(=O)OC [Compound 14c] the pIC50 [1] was 4.12 and the “AAPH inhibition (%, at 100 µM)” value [2] was 38%.
For COC(=O)CCCNC(=O)/C=C/c1ccc(C#N)cc1 [Compound 26b], the pIC50 (ovine COX-2) was 4.49 and the “AAPH inhibition (%, at 100 µM)” value [2] was 3%.
With COC(=O)CC[C@H](NC(=O)/C=C/c1ccc(OCc2ccc(Br)cc2)cc1)C(=O)OC [Compound 11c] the “AAPH inhibition (%, at 100 µM)” value [2] was 92%.
For COC(=O)CCCNC(=O)/C=C/c1cc(OC)ccc1OC [Compound 19b], the “COX-2 inhibition (%)” value (ovine COX-2) was 20% and the “AAPH inhibition (%, at 100 µM)” value [2] was 70%.
With CCOC(=O)CNC(=O)/C=C/c1ccc(Br)cc1 [Compound 14a] the pIC50 (ovine COX-2) was 4.18 and the “AAPH inhibition (%, at 100 µM)” value [2] was 69%.
